Earlier results in patent US20020025537A1, “High-throughput methods for generating and screening compounds that affect cell viability” (priority 2000, published 2002).
Bridge positions count the residues as written; N and C are the ends. Ends that are not written are not given here.

Experiments:
[1] = tested on: Gram negative and Gram positive pathogenic bacteria, including strains of methicillin resistant S. aureus and vancomycin resistant E. faecalis; details: in vitro; Gram negative and Gram positive pathogens incl. MRSA and vancomycin resistant E. faecalis
[2] = tested on: methicillin resistant S. aureus and vancomycin resistant E. faecalis; details: intravenous administration

Question: For “protegrin-1 (RGGRLCYCRRRFCVCVGR-NH2; disulfide 8-13, 6-15; ends not checked; UniProt P32194 131-148, looked up) [PG-1, a native peptide obtained from porcine leukocytes]”, which bactericidal activity [1] is on record?
Answer: Its bactericidal activity is “rapid bactericidal activity”.

Question: What about the “toxicity to the mice” value [2] of the same substance?
Answer: Its value is “without apparent toxicity”.

Question: What about the “protection from lethal challenges” value ([2]; mice, challenge with MRSA or vancomycin resistant E. faecalis) of the same substance?
Answer: Its value is “protected mice from lethal challenges”.
